From patent US8445492B2, “Method for inhibiting growth of cancer cells and cell telomere and diseases of cell proliferation by using heteroannelated anthraquinone derivative compounds” (National Defense Medical Center, priority 2008, dated 2013)

Assays:
Format in all cases: cell-based
OVCAR-4 = experiment: NCI DTP in-vitro dose response, Ovarian Cancer
OVCAR-5 = experiment: NCI DTP in-vitro dose response, Ovarian Cancer
OVCAR-3 = experiment: NCI DTP in-vitro dose response, Ovarian Cancer
OVCAR-8 = experiment: NCI DTP in-vitro dose response, Ovarian Cancer
IGROV1 = experiment: NCI DTP in-vitro dose response, Ovarian Cancer
SK-OV-3 = experiment: NCI DTP in-vitro dose response, Ovarian Cancer
MDA-MB-231/ATCC = experiment: NCI DTP in-vitro dose response, Breast Cancer
MDA-MB-468 = experiment: NCI DTP in-vitro dose response, Breast Cancer
MCF7 = experiment: NCI DTP in-vitro dose response, Breast Cancer
BT-549 = experiment: NCI DTP in-vitro dose response, Breast Cancer
HS 578T = experiment: NCI DTP in-vitro dose response, Breast Cancer
T-47D = experiment: NCI DTP in-vitro dose response, Breast Cancer
MDA-MB-435 = experiment: NCI DTP in-vitro dose response, Breast Cancer
NCI/ADR-RES = experiment: NCI DTP in-vitro dose response, Breast Cancer

CCc1nc2ccc3c(c2[nH]1)C(=O)c1ccccc1C3=O [TABLE 4-6]
CC50 (OVCAR-4): > 100 µM
TGI (OVCAR-4): >1.00E−4
Percent Growth (OVCAR-4; Log10 Concentration −4.0): 15%
Percent Growth (OVCAR-4; Log10 Concentration −5.0): 37%
Percent Growth (OVCAR-4; Log10 Concentration −6.0): 83%
Percent Growth (OVCAR-4; Log10 Concentration −7.0): 96%
Percent Growth (OVCAR-4; Log10 Concentration −8.0): 98%
GI50 (OVCAR-4; read-out: GI50): 5.18 µM
CC50 (OVCAR-5): > 100 µM
TGI (OVCAR-5): >1.00E−4
Percent Growth (OVCAR-5; Log10 Concentration −4.0): 45%
Percent Growth (OVCAR-5; Log10 Concentration −5.0): 85%
Percent Growth (OVCAR-5; Log10 Concentration −6.0): 94%
Percent Growth (OVCAR-5; Log10 Concentration −7.0): 91%
Percent Growth (OVCAR-5; Log10 Concentration −8.0): 88%
GI50 (OVCAR-5; read-out: GI50): 75.7 µM
CC50 (OVCAR-3): > 100 µM
TGI (OVCAR-3): >1.00E−4
Percent Growth (OVCAR-3; Log10 Concentration −4.0): 8%
Percent Growth (OVCAR-3; Log10 Concentration −5.0): 57%
Percent Growth (OVCAR-3; Log10 Concentration −6.0): 93%
Percent Growth (OVCAR-3; Log10 Concentration −7.0): 106%
Percent Growth (OVCAR-3; Log10 Concentration −8.0): 100%
GI50 (OVCAR-3; read-out: GI50): 14.1 µM
CC50 (OVCAR-8): > 100 µM
TGI (OVCAR-8): >1.00E−4
Percent Growth (OVCAR-8; Log10 Concentration −4.0): 24%
Percent Growth (OVCAR-8; Log10 Concentration −5.0): 58%
Percent Growth (OVCAR-8; Log10 Concentration −6.0): 92%
Percent Growth (OVCAR-8; Log10 Concentration −7.0): 91%
Percent Growth (OVCAR-8; Log10 Concentration −8.0): 96%
GI50 (OVCAR-8; read-out: GI50): 17.7 µM
CC50 (IGROV1): > 100 µM
GI50 (IGROV1): 1.34 µM
TGI (IGROV1): 1.69E−5
Percent Growth (IGROV1; Log10 Concentration −4.0): −19%
Percent Growth (IGROV1; Log10 Concentration −5.0): 6%
Percent Growth (IGROV1; Log10 Concentration −6.0): 56%
Percent Growth (IGROV1; Log10 Concentration −7.0): 88%
Percent Growth (IGROV1; Log10 Concentration −8.0): 89%
CC50 (SK-OV-3): > 100 µM
TGI (SK-OV-3): >1.00E−4
Percent Growth (SK-OV-3; Log10 Concentration −4.0): 14%
Percent Growth (SK-OV-3; Log10 Concentration −5.0): 12%
Percent Growth (SK-OV-3; Log10 Concentration −6.0): 76%
Percent Growth (SK-OV-3; Log10 Concentration −7.0): 92%
Percent Growth (SK-OV-3; Log10 Concentration −8.0): 95%
GI50 (SK-OV-3; read-out: GI50): 2.55 µM

CCc1nc2ccc3c(c2[nH]1)C(=O)c1ccccc1C3=O [TABLE 4-9]
CC50 (MDA-MB-231/ATCC): > 100 µM
TGI (MDA-MB-231/ATCC): >1.00E−4
Percent Growth (MDA-MB-231/ATCC; Log10 Concentration −4.0): 36%
Percent Growth (MDA-MB-231/ATCC; Log10 Concentration −5.0): 54%
Percent Growth (MDA-MB-231/ATCC; Log10 Concentration −6.0): 90%
Percent Growth (MDA-MB-231/ATCC; Log10 Concentration −7.0): 95%
Percent Growth (MDA-MB-231/ATCC; Log10 Concentration −8.0): 98%
GI50 (MDA-MB-231/ATCC; read-out: GI50): 16.6 µM
CC50 (MDA-MB-468): > 100 µM
TGI (MDA-MB-468): 6.33E−5
Percent Growth (MDA-MB-468; Log10 Concentration −4.0): −7%
Percent Growth (MDA-MB-468; Log10 Concentration −5.0): 29%
Percent Growth (MDA-MB-468; Log10 Concentration −6.0): 79%
Percent Growth (MDA-MB-468; Log10 Concentration −7.0): 89%
Percent Growth (MDA-MB-468; Log10 Concentration −8.0): 83%
GI50 (MDA-MB-468; read-out: GI50): 3.83 µM
CC50 (MCF7): > 100 µM
TGI (MCF7): 8.14E−5
Percent Growth (MCF7; Log10 Concentration −4.0): −4%
Percent Growth (MCF7; Log10 Concentration −5.0): 37%
Percent Growth (MCF7; Log10 Concentration −6.0): 54%
Percent Growth (MCF7; Log10 Concentration −7.0): 76%
Percent Growth (MCF7; Log10 Concentration −8.0): 85%
GI50 (MCF7; read-out: GI50): 1.68 µM
CC50 (BT-549): > 100 µM
TGI (BT-549): >1.00E−4
Percent Growth (BT-549; Log10 Concentration −4.0): 15%
Percent Growth (BT-549; Log10 Concentration −5.0): 60%
Percent Growth (BT-549; Log10 Concentration −6.0): 95%
Percent Growth (BT-549; Log10 Concentration −7.0): 100%
Percent Growth (BT-549; Log10 Concentration −8.0): 101%
GI50 (BT-549; read-out: GI50): 16.7 µM
CC50 (HS 578T): > 100 µM
TGI (HS 578T): 2.67E−5
Percent Growth (HS 578T; Log10 Concentration −4.0): −32%
Percent Growth (HS 578T; Log10 Concentration −5.0): 24%
Percent Growth (HS 578T; Log10 Concentration −6.0): 56%
Percent Growth (HS 578T; Log10 Concentration −7.0): 108%
Percent Growth (HS 578T; Log10 Concentration −8.0): 107%
GI50 (HS 578T; read-out: GI50): 1.56 µM
CC50 (T-47D): > 100 µM
TGI (T-47D): >1.00E−4
Percent Growth (T-47D; Log10 Concentration −4.0): 10%
Percent Growth (T-47D; Log10 Concentration −5.0): 32%
Percent Growth (T-47D; Log10 Concentration −6.0): 78%
Percent Growth (T-47D; Log10 Concentration −7.0): 94%
Percent Growth (T-47D; Log10 Concentration −8.0): 105%
GI50 (T-47D; read-out: GI50): 4 µM
CC50 (MDA-MB-435): > 100 µM
TGI (MDA-MB-435): >1.00E−4
Percent Growth (MDA-MB-435; Log10 Concentration −4.0): 37%
Percent Growth (MDA-MB-435; Log10 Concentration −5.0): 66%
Percent Growth (MDA-MB-435; Log10 Concentration −6.0): 92%
Percent Growth (MDA-MB-435; Log10 Concentration −7.0): 91%
Percent Growth (MDA-MB-435; Log10 Concentration −8.0): 97%
GI50 (MDA-MB-435; read-out: GI50): 36.5 µM
CC50 (NCI/ADR-RES): > 100 µM
TGI (NCI/ADR-RES): >1.00E−4
Percent Growth (NCI/ADR-RES; Log10 Concentration −4.0): 6%
Percent Growth (NCI/ADR-RES; Log10 Concentration −5.0): 51%
Percent Growth (NCI/ADR-RES; Log10 Concentration −6.0): 89%
Percent Growth (NCI/ADR-RES; Log10 Concentration −7.0): 99%
Percent Growth (NCI/ADR-RES; Log10 Concentration −8.0): 95%
GI50 (NCI/ADR-RES; read-out: GI50): 10.5 µM
